The values below come from PubChem BioAssay AID328 (DTP/NCI, 2004).

The structures appear in SMILES notation. Where “and” joins values, the source holds several entries; their conditions need not be identical. Identical values can stand only once. Toxic doses and inconclusive results are not listed. Non-standard residues stand in square brackets, D forms with d. Residues, ends and D or L forms follow the SMILES beside them. ξ: configuration not given here. *: point of attachment. Nphe = O=C(O)CNCc1ccccc1; ξL = CC(C)CC(N)C(=O)O; Ms = CS(=O)(=O)*

For this assay, the system named is BDF1 mice, P388 leukemia ip, median survival T/C. The assay is described as follows: NCI In Vivo Anticancer Drug Screen. Data for tumor model P388 Leukemia (intraperitoneal) in B6D2F1 (BDF1) mice. The following applies: endpoint: median survival time, higher = longer survival. In outline: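 Steps: implant the tumour, treat one group with compound and another with vehicle, record survival, then divide treated by control.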

The mark [1] stands for this setting: dose: 100.0 mg/kg/injection, schedule: Q04DX003 (ip), vehicle: saline.
Where [2] appears, read: dose: 200.0 mg/kg/injection, schedule: Q04DX003 (ip), vehicle: saline.
Setting [3] is: dose: 100.0 mg/kg/injection, schedule: Q01DX009 (ip), vehicle: saline with Tween-80.
[4] abbreviates: dose: 200.0 mg/kg/injection, schedule: Q01DX009 (ip), vehicle: saline with Tween-80.

As for `Clc1ncnc2c1ncn2C1CCCO1` (stereo not drawn), the T/C under setting [1] was 104 % of control and the T/C under setting [2] was 104 % of control.
In the case of `CS(=O)(=O)OCCCl`, the T/C is 105 % of control and 120 % of control (dose: 18.8 mg/kg/injection, schedule: Q01DX010 (ip), vehicle: saline); 100 % of control and 110 % of control (dose: 37.5 mg/kg/injection, schedule: Q01DX010 (ip), vehicle: saline); 100 % of control (dose: 75.0 mg/kg/injection, schedule: Q01DX010 (ip), vehicle: saline).
For the compound `CN(C)c1ccc2c(N(C)C)cc(N(C)C)nc2c1`, the T/C is, setting by setting: (dose: 12.5 mg/kg/injection, schedule: Q01DX009 (ip), vehicle: Klucel (hydroxypropylcellulose) (HPC)) 111 % of control; (dose: 25.0 mg/kg/injection, schedule: Q01DX009 (ip), vehicle: Klucel (hydroxypropylcellulose) (HPC)) 89 % of control; (dose: 50.0 mg/kg/injection, schedule: Q01DX009 (ip), vehicle: Klucel (hydroxypropylcellulose) (HPC)) 120 % of control.
In the case of `CC[C@](O)(C(=O)O)c1cc2n(c(=O)c1CO)Cc1cc3ccccc3nc1-2`, the T/C runs as follows: (dose: 1.0 mg/kg/injection, schedule: Q01DX009 (ip), vehicle: water) 112 % of control; (dose: 2.0 mg/kg/injection, schedule: Q01DX009 (ip), vehicle: saline) 156 % of control; (dose: 2.0 mg/kg/injection, schedule: Q01DX009 (ip), vehicle: water) 150 % of control; (dose: 3.13 mg/kg/injection, schedule: Q04DX002 (ip), vehicle: saline) 116 % of control; (dose: 4.0 mg/kg/injection, schedule: Q01DX009 (ip), vehicle: saline) 171 % of control; (dose: 12.5 mg/kg/injection, schedule: Q04DX002 (ip), vehicle: saline) 161 % of control. The T/C (dose: 12.5 mg/kg/injection, schedule: Q04DX009 (ip), vehicle: saline) was 192 % of control; the T/C (dose: 14.4 mg/kg/injection, schedule: Q04DX003 (ip), vehicle: saline) is 175 % of control; the T/C (dose: 18.0 mg/kg/injection, schedule: Q04DX003 (ip), vehicle: saline) was 175 % of control; the T/C (dose: 24.0 mg/kg/injection, schedule: Q04DX003 (ip), vehicle: saline) was 214 % of control; the T/C (dose: 25.0 mg/kg/injection, schedule: Q04DX002 (ip), vehicle: saline) is 199 % of control; the T/C (dose: 25.0 mg/kg/injection, schedule: Q04DX009 (ip), vehicle: saline) was 192 % of control. For the same compound, the T/C was 201 % of control (dose: 30.0 mg/kg/injection, schedule: Q04DX003 (ip), vehicle: saline); 168 % of control (dose: 33.0 mg/kg/injection, schedule: Q04DX003 (ip), vehicle: saline); 224 % of control (dose: 40.0 mg/kg/injection, schedule: Q04DX003 (ip), vehicle: saline); 104 % of control (dose: 40.0 mg/kg/injection, schedule: Q04DX003 (ip), vehicle: water); 172 % of control (dose: 50.0 mg/kg/injection, schedule: Q04DX003 (ip), vehicle: saline); 90 % of control (dose: 66.7 mg/kg/injection, schedule: Q04DX003 (ip), vehicle: saline). Moreover, the T/C runs as follows: (dose: 75.0 mg/kg/injection, schedule: Q04DX003 (ip), vehicle: saline) 200 % of control; (dose: 100.0 mg/kg/injection, schedule: Q01DX001 (ip), vehicle: saline) 172 % of control; (dose: 150.0 mg/kg/injection, schedule: Q01DX001 (ip), vehicle: saline) 43 % of control; (dose: 175.0 mg/kg/injection, schedule: Q01DX001 (ip), vehicle: saline) 90 % of control.
With `C1=CC2CCC(C1)C21OCCO1` (stereo not drawn), the T/C (dose: 100.0 mg/kg/injection, schedule: Q01DX009 (ip), vehicle: saline) is 90 % of control; the T/C under setting [1] is 95 % of control; the T/C (dose: 200.0 mg/kg/injection, schedule: Q01DX009 (ip), vehicle: saline) is 109 % of control; the T/C under setting [2] was 104 % of control; the T/C (dose: 400.0 mg/kg/injection, schedule: Q01DX009 (ip), vehicle: saline) was 109 % of control; the T/C (dose: 400.0 mg/kg/injection, schedule: Q04DX003 (ip), vehicle: saline) is 108 % of control.
With `CC(=O)[C@H]1CC[C@H]2[C@@H]3CCC4=CC(=O)CC[C@]4(C)[C@H]3CC[C@]12C`, the T/C (dose: 100.0 mg/kg/injection, schedule: Q01DX009 (sc), vehicle: steriod suspending solution) is 104 % of control; the T/C (dose: 100.0 mg/kg/injection, schedule: Q04DX003 (sc), vehicle: steriod suspending solution) is 100 % of control; the T/C (dose: 200.0 mg/kg/injection, schedule: Q01DX009 (sc), vehicle: steriod suspending solution) was 87 % of control; the T/C (dose: 200.0 mg/kg/injection, schedule: Q04DX003 (sc), vehicle: steriod suspending solution) was 105 % of control; the T/C (dose: 400.0 mg/kg/injection, schedule: Q01DX009 (sc), vehicle: steriod suspending solution) is 87 % of control; the T/C (dose: 400.0 mg/kg/injection, schedule: Q04DX003 (sc), vehicle: steriod suspending solution) is 110 % of control.
Take `C/C(Cc1ccccc1)=N\O`: the T/C by setting is: under setting [3], 100 % of control; under setting [4], 110 % of control.
For the compound `Clc1ccc(-c2n[se]c(-c3ccc(Cl)cc3)n2)cc1`, the T/C by setting is: (dose: 0.19 mg/kg/injection, schedule: Q01DX009 (ip), vehicle: saline with Tween-80) 98 % of control; (dose: 0.39 mg/kg/injection, schedule: Q01DX009 (ip), vehicle: saline with Tween-80) 101 % of control; (dose: 0.78 mg/kg/injection, schedule: Q01DX009 (ip), vehicle: saline with Tween-80) 95 % of control; (dose: 1.56 mg/kg/injection, schedule: Q01DX009 (ip), vehicle: saline with Tween-80) 96 % of control.
`Cc1ccc(S(=O)(=O)Oc2ccc(-c3ccc(OS(=O)(=O)c4ccc(C)cc4)cc3)cc2)cc1`: the T/C was 107 % of control (dose: 50.0 mg/kg/injection, schedule: Q01DX009 (ip), vehicle: saline with Tween-80); 111 % of control under setting [3]; 90 % of control under setting [4]; 94 % of control (dose: 400.0 mg/kg/injection, schedule: Q01DX009 (ip), vehicle: saline with Tween-80).
Regarding `CCCC(=O)Nc1ccc(NS(C)(=O)=O)cc1OC`, the T/C (dose: 100.0 mg/kg/injection, schedule: Q01DX009 (ip), vehicle: Klucel (hydroxypropylcellulose) (HPC)) is 95 % of control; the T/C (dose: 100.0 mg/kg/injection, schedule: Q04DX003 (ip), vehicle: Klucel (hydroxypropylcellulose) (HPC)) is 100 % of control; the T/C (dose: 200.0 mg/kg/injection, schedule: Q01DX009 (ip), vehicle: Klucel (hydroxypropylcellulose) (HPC)) is 90 % of control; the T/C (dose: 200.0 mg/kg/injection, schedule: Q04DX003 (ip), vehicle: Klucel (hydroxypropylcellulose) (HPC)) is 95 % of control; the T/C (dose: 400.0 mg/kg/injection, schedule: Q01DX009 (ip), vehicle: Klucel (hydroxypropylcellulose) (HPC)) was 90 % of control.
Consider `CC(C)CC(NC(=O)CN(Cc1ccccc1)S(C)(=O)=O)C(=O)O` (stereo not drawn) (Ms-[Nphe]-[ξL]-OH), for which the T/C (dose: 6.25 mg/kg/injection, schedule: Q04DX003 (ip), vehicle: other) is 110 % of control; the T/C (dose: 12.5 mg/kg/injection, schedule: Q04DX003 (ip), vehicle: other) is 97 % of control; the T/C (dose: 25.0 mg/kg/injection, schedule: Q04DX003 (ip), vehicle: other) is 113 % of control; the T/C (dose: 50.0 mg/kg/injection, schedule: Q01DX009 (ip), vehicle: other) is 151 % of control; the T/C (dose: 50.0 mg/kg/injection, schedule: Q04DX003 (ip), vehicle: other) was 95 % of control and 98 % of control; the T/C (dose: 100.0 mg/kg/injection, schedule: Q04DX003 (ip), vehicle: other) is 100 % of control and 103 % of control. Besides, the T/C (dose: 200.0 mg/kg/injection, schedule: Q01DX009 (ip), vehicle: other) was 89 % of control; the T/C (dose: 200.0 mg/kg/injection, schedule: Q04DX003 (ip), vehicle: other) is 98 % of control and 106 % of control; the T/C (dose: 400.0 mg/kg/injection, schedule: Q04DX003 (ip), vehicle: other) was 106 % of control.
As to `CC(CCC(=O)NC12CC3CC(CC(C3)C1)C2)C1CCC2C3CCC4CC(OC=O)CCC4(C)C3CC(OC=O)C12C` (stereo not drawn), the T/C (dose: 12.5 mg/kg/injection, schedule: Q04DX002 (ip), vehicle: saline with Tween-80) is 91 % of control and the T/C (dose: 25.0 mg/kg/injection, schedule: Q04DX002 (ip), vehicle: saline with Tween-80) is 110 % of control.
